These results are taken from patent US11903932B2, “Use of dihydroberberine or its derivatives to enhance muscle function” (NANJING NUTRABUILDING BIO-TECH CO., LTD., priority 2021, dated 2024).

Type in all cases: in vivo, Sprague Dawley rats
Test [1] has as its system ATP. As to the kind of experiment: ATP determination in serum and skeletal muscle (ELISA). The following applies: HFD rats. The method, then:
Male Sprague Dawley rats aged 6-8 weeks were housed under a 12/12 h light/dark cycle at 22° C. and given free access to water and high-fat diet (HFD, 60% kcal from fat) for 12 weeks. After the 12 weeks, all rats were randomly divided into 3 groups of 8 animals. They were supplemented with or without DHB according to the following: • (1) non-supplement group (Con HFD only, Group 1); • (2) DHB supplement group (DHB+HFD, 100 mg/kg, Group 2); • (3) DHB supplement group (DHB+HFD, 200 mg/kg, Group 3). Based on the results of decreased fiber number and insulin resistance, the mitochondrial function in skeletal muscle might be also impaired. ATP and ROS levels in serum and skeletal muscle, which represented mitochondrial function, were further determined. ATP determination: The ATP concentration in the gastrocnemius muscle was measured using ELISA according to the manufacturer's instructions. Before the ELISA was tested, the gastrocnemius muscle lysates were first measured with a BCA protein assay kit, and the total protein concentration of each group was adjusted to the same by RIPA. The concentration of ATP was then calculated based on the absorption density determined at 450 nm.
(In general: An ELISA detects its analyte on a solid surface through an enzyme-linked reagent.)

The subject of test [2] is AMPK/SIRT1/PGC-1α. As to the kind of experiment: Western blot of AMPK/SIRT1/PGC-1α protein expression in muscle tissue. The following applies: HFD rats, skeletal muscle. The method, then: (§1) Male Sprague Dawley rats aged 6-8 weeks were housed under a 12/12 h light/dark cycle at 22° C. and given free access to water and high-fat diet (HFD, 60% kcal from fat) for 12 weeks. After the 12 weeks, all rats were randomly divided into 3 groups of 8 animals. They were supplemented with or without DHB according to the following: • (1) non-supplement group (Con HFD only, Group 1); • (2) DHB supplement group (DHB+HFD, 100 mg/kg, Group 2); • (3) DHB supplement group (DHB+HFD, 200 mg/kg, Group 3).
(§2) Before the rats were sacrificed, half the rats in each group were injected with 0.75 IU/kg body weight insulin (i.p.) to activate glucose uptake and assess the insulin resistance in the skeletal muscle. Fifteen minutes later, all the rats were anesthetized with chloral hydrate; the soleus muscles were fixed in paraformaldehyde, and the gastrocnemius muscles were frozen immediately in liquid nitrogen and stored at −80° C. for protein-related experiments.
Protein sample preparation: For total protein extraction, 100 mg of the frozen gastrocnemius muscle was homogenized in radioimmunoprecipitation assay (RIPA) buffer (containing 0.2 μg/mL PMSF and 10 μg/mL phosphatase inhibitor) for 30 min and then centrifuged at 3,500 rpm×15 min and 12,000 rpm×15 min. The supernatants were extracted for the western blot analysis.
Western blot analysis: The concentration of protein in the gastrocnemius muscle was quantitated by piercing bicinchoninic acid (BCA), and 120 μg of total protein was electrophoresed on a 12% SDS polyacrylamide gel and electro-transferred onto Polyvinylidene difluoride (PVDF) membranes. Membranes were blocked with 5% (w/v) BSA for 2 h at room temperature and then incubated with primary antibodies overnight at 4° C. with slight shaking. After being washed with TBST three times, the membranes were incubated with a secondary antibody (1:2000) at room temperature for 2 h. The protein bands were visualized by enhanced chemiluminescence with a GENE Imaging system. The images were quantified using Image Analysis Software.
Western blot was used to check the protein expression of AMPK/SIRT1/PGC-1α in the muscle tissue.
(Immunoblotting shows a protein as a band on a membrane.)

Test [3] deals with glucose transporter type 4 (GLUT4). As to the kind of experiment: Insulin stimulating membrane translocation of GLUT4 in skeletal muscle by western blot. The following applies: HFD rats, DHB groups 100 and 200 mg/kg, especially higher dose; insulin 0.75 IU/kg i.p.; gastrocnemius muscle, FIG. 2. The method, then: as §1
Before the rats were sacrificed, half the rats in each group were injected with 0.75 IU/kg body weight insulin (i.p.) to activate glucose uptake and assess the insulin resistance in the skeletal muscle. […]
To assess that DHB could improve insulin resistance in the skeletal muscle, the insulin stimulating membrane translocation of glucose transporter type 4 (GLUT4) by the western blot analysis was measured and compared among the groups. […]
Western blot analysis: The concentration of protein in the gastrocnemius muscle was quantitated by piercing bicinchoninic acid (BCA), and 120 μg of total protein was electrophoresed on a 12% SDS polyacrylamide gel and electro-transferred onto Polyvinylidene difluoride (PVDF) membranes. […] The images were quantified using Image Analysis Software.

The test system of test [4] is ROS. The test is described as follows: Reactive oxygen species (ROS) test in serum and skeletal muscle. The conditions noted are these: HFD rats, DHB 100 and 200 mg/kg. As for the experimental part:
Male Sprague Dawley rats aged 6-8 weeks were housed under a 12/12 h light/dark cycle at 22° C. and given free access to water and high-fat diet (HFD, 60% kcal from fat) for 12 weeks. After the 12 weeks, all rats were randomly divided into 3 groups of 8 animals. They were supplemented with or without DHB according to the following: • (1) non-supplement group (Con HFD only, Group 1); • (2) DHB supplement group (DHB+HFD, 100 mg/kg, Group 2); • (3) DHB supplement group (DHB+HFD, 200 mg/kg, Group 3). Based on the results of decreased fiber number and insulin resistance, the mitochondrial function in skeletal muscle might be also impaired. ATP and ROS levels in serum and skeletal muscle, which represented mitochondrial function, were further determined. Reactive oxygen species (ROS) test: Ten microliters of skeletal muscle or lysate or 10 μl of serum was added to 127.5 μl of reaction buffer in 96-well plates (containing 30 mM HEPES (pH 7.2), 200 mM KCl, 1 mM MgCl2, and 7.5 μl of 2,2′-azobis(2-methylpropionamidine) dihydrochloride). The same volume of ultrapure water was pipetted into the plate as a blank. The microplate was put into a fluorescence microplate reader at 35° C. 10 μl of the fluorescent probe H2DCF-DA was added to each well for a final concentration of 40 μM immediately before reading, and the level of ROS was detected at 488 and 525 nm.

The nature of test [5]: Body fat percentage by nuclear magnetic resonance body composition analyzer in high-fat diet rats. The conditions noted are these: HFD rats, FIG. 1. The method, then: Male Sprague Dawley rats aged 6-8 weeks were housed under a 12/12 h light/dark cycle at 22° C. and given free access to water and high-fat diet (HFD, 60% kcal from fat) for 12 weeks. After the 12 weeks, all rats were randomly divided into 3 groups of 8 animals. They were supplemented with or without DHB according to the following: • (1) non-supplement group (Con HFD only, Group 1); • (2) DHB supplement group (DHB+HFD, 100 mg/kg, Group 2); • (3) DHB supplement group (DHB+HFD, 200 mg/kg, Group 3). Before supplementing DHB, the muscle content of all rats was measured by nuclear magnetic resonance body composition analyzer. And then all rats were administered DHB before each major meal once daily by gavage (i.g.) in normal saline solution for 4 months. The muscle content of all rats was tested by nuclear magnetic resonance body composition analyzer every month. […] FIG. 1 is a graph of percentage of body fat of three groups of rats (Con; DHB 100 mg/kg; DHB 200 mg/kg) every month. […] Thus, DHB supplementation could achieve the beneficial effects on weight loss and increasing muscle mass.

Test [6] has as its system soleus muscles. The test is described as follows: HE staining of soleus, morphological changes of the skeletal muscle. The conditions noted are these: HFD rats, DHB supplementation groups, especially group 3 (200 mg/kg). As for the experimental part: as §1, §2
To evaluate the morphological changes of the skeletal muscle, HE staining of soleus was conducted. Hematoxylin-eosin (HE) staining: Soleus muscles were fixed in paraformaldehyde overnight, dehydrated in an ascending graded ethanol series, equilibrated with xylene, embedded in paraffin and sectioned into 5- to 10-μm slices. Then, the samples were dewaxed with xylene and a descending graded ethanol series. […]

The structures appear in SMILES notation.

As for `COc1ccc2c(c1OC)CN1CCc3cc4c(cc3C1=C2)OCO4` [DHB, dihydroberberine], the “production of ATP in serum relative to the control group” value in test [1] (DHB 200 mg/kg, serum, FIG. 4a) stood at 1.6 fold. The “production of ATP in skeletal muscle relative to the control group” value in test [1] (DHB 200 mg/kg, skeletal muscle, FIG. 4c) worked out at 2.7 fold. Further, the “production of ATP in serum” value in test [1] (DHB treatment 100 and 200 mg/kg, serum, FIG. 4a) is “increased significantly”. The “production of ATP in skeletal muscle” value in test [1] (DHB treatment 100 and 200 mg/kg, skeletal muscle, FIG. 4c) is recorded as “increased significantly”. Moreover, the “total AMPK protein expression among the three groups” value in test [2] (DHB 100 and 200 mg/kg vs control, GAPDH as internal reference, FIG. 4e) was “no significant difference”. Besides, in test [2] (DHB groups, especially group 3 (200 mg/kg), FIG. 4e), the “protein expression of p-AMPK” value is given as “dramatically upregulated”. The “protein expression of SIRT1 relative to the control group” value in test [2] (group 3 (DHB 200 mg/kg), FIG. 4f) is reported as “approximately 1.9 fold”. For the same compound, in test [2] (group 3 (DHB 200 mg/kg), FIG. 4g), the “protein expression of PGC-1α relative to the control group” value is given as around 2 fold. For the same compound, the “membrane translocation of GLUT4 after insulin stimulation relative to control group” value in test [3] is reported as “remarkably increased”. Moreover, the “ROS level in serum” value in test [4] (serum, FIG. 4b) was “inhibit increased ROS effectively”. In test [4] (skeletal muscle, FIG. 4d), the “ROS level in skeletal muscle” value is given as “inhibit increased ROS effectively”. Also, the “reduction in body fat compared to control group” value in test [5] (DHB 100 and 200 mg/kg i.g. once daily for 4 months) is on record as “greater reduction in body fat”. Besides, in test [5] (higher dose group (200 mg/kg) i.g. once daily, 4 months), the “decrease of percentage of body fat versus beginning of supplementation” value is “about 52%”. For the same compound, the “number of muscle fibers compared with the control group” value in test [6] (FIG. 3a) is recorded as “increased dramatically”. In addition, in test [6] (FIG. 3b), the “relative cross-sectional area of the muscle fibers versus control group” value is listed as “dropped below that of the control group”.
